Where a name gives a salt, the structure may show the parent alone. Read-outs that look alike come from different tables or passages of the source.
Assays:
Assay type in all cases: cell-based
[1] = test system: P. aeruginosa (ATCC 15442); assay: Minimum inhibitory concentration determination, serial 2-fold dilution; settings: Pseudomonas aeruginosa, ATCC15442, P. aeruginosa (ATCC 15442)
Protocol: (§1) The minimal inhibitory concentration (MIC, the minimum inhibitory concentration required for 90% growth reduction) of octenidine was determined against S. aureus (ATCC 6538), P. aeruginosa (ATCC 15442), and E. coli (ATCC BAA 1427) by serial 2-fold dilution experiments. A solution of chlorhexidine (0.025% w/w) was used as a positive control and comparator.

[2] = test system: S. aureus (ATCC 6538); assay: as above; settings: Staphylococcus aureus, ATCC6538, S. aureus (ATCC 6538)
Protocol: as §1

[3] = test system: E. coli (ATCC BAA 1427); assay: as above; settings: Escherichia coli
Protocol: as §1

[4] = test system: P. aeruginosa; assay: Chequerboard assay, FIC and synergy analysis; settings: Pseudomonas aeruginosa, P. aeruginosa, chequerboard
Protocol: (§2) Chlorhexidine gluconate (CHG) and octenidine dihydrochloride (OCT) were analyzed by chequerboard assay with each test organism to determine potential additive, synergistic, and antagonistic activity. The test organisms S. aureus, P. aeruginosa, and E. coli were tested at ranges of chlorhexidine gluconate (0.122-15.625 μg/ml, 1.25-160 μg/ml, and 0.125-16 μg/ml, respectively) and octenidine dihydrochloride (0.029-3.75 μg/mL, 0.029-3.75 μg/mL, and 0.029-3.75 μg/mL, respectively). FIC was calculated by the following Equation 2: […]

[5] = test system: S. aureus; assay: Chequerboard assay, FIC and synergy analysis; settings: Staphylococcus aureus
Protocol: as §2

[6] = test system: E. coli; assay: Chequerboard assay, FIC and synergy analysis; settings: Escherichia coli
Protocol: as §2

[7] = test system: P. aeruginosa (ATCC 15442); assay: Minimal bactericidal concentration determination, serial 2-fold dilution; settings: for Number of Colonies: average of triplicate
Protocol: (§3) The minimal bactericidal concentration (MBC) of octenidine dihydrochloride was determined against S. aureus (ATCC 6538), P. aeruginosa (ATCC 15442), and E. coli (ATCC BAA 1427) by serial 2-fold dilution experiments. A solution of chlorhexidine (0.025% w/w) was used as a positive control and comparator.

[8] = test system: S. aureus (ATCC 6538); assay: as above; settings: for Number of Colonies: average of triplicate
Protocol: as §3

[9] = test system: E. coli (ATCC BAA 1427); assay: as above; settings: E. coli (ATCC BAA 1427); for Number of Colonies: average of triplicate
Protocol: as §3

[10] = 0.46875 μg/mL, read-out: Average Growth Inhibition (%)
[11] = 0.9375 μg/mL, read-out: Average Growth Inhibition (%)
[12] = 1.875 μg/mL, read-out: Average Growth Inhibition (%)
[13] = 3.75 μg/mL, read-out: Average Growth Inhibition (%)
[14] = 7.5 μg/mL, read-out: Average Growth Inhibition (%)
[15] = 15 μg/mL, read-out: Average Growth Inhibition (%)
[16] = 30 μg/mL, read-out: Average Growth Inhibition (%)
[17] = 60 μg/mL, read-out: Average Growth Inhibition (%)
[18] = read-out: MIC (inhibited greater than 90% growth)
[19] = in presence of CHG, read-out: MIC of OCT in Presence of CHG

## CCCCCCCCN=c1ccn(CCCCCCCCCCn2ccc(=NCCCCCCCC)cc2)cc1 [Octenidine dihydrochloride, 1-Octanamine, N,N′-(1,10-decanediyldi-1(4H)-pyridinyl-4-ylidene)bis-]
[1]; [10]
  inhibition at 0.46875 µg/mL: 2%
[1]; [11]
  inhibition at 0.9375 µg/mL: 4%
[1]; [12]
  inhibition at 1.875 µg/mL: 100%
[1]; [13]
  inhibition at 3.75 µg/mL: 100%
[1]; [14]
  inhibition at 7.5 µg/mL: 100%
[1]; [15]
  inhibition at 15 µg/mL: 99%
[1]; [16]
  inhibition at 30 µg/mL: 97%
[1]; [17]
  inhibition at 60 µg/mL: 91%
[1]; [18]
  MIC: 1.88 µg/mL
[2]; [10]
  inhibition at 0.46875 µg/mL: 50%
[2]; [11]
  inhibition at 0.9375 µg/mL: 101%
[2]; [12]
  inhibition at 1.875 µg/mL: 101%
[2]; [13]
  inhibition at 3.75 µg/mL: 101%
[2]; [14]
  inhibition at 7.5 µg/mL: 98%
[2]; [15]
  inhibition at 15 µg/mL: 97%
[2]; [16]
  inhibition at 30 µg/mL: 92%
[2]; [17]
  inhibition at 60 µg/mL: 73%
[2]; [18]
  MIC: 0.938 µg/mL
[3]; BAA1427, 0.46875 μg/mL, read-out: Average Growth Inhibition (%)
  inhibition at 0.46875 µg/mL: 6%
[3]; BAA1427, 0.9375 μg/mL, read-out: Average Growth Inhibition (%)
  inhibition at 0.9375 µg/mL: 12%
[3]; BAA1427, 1.875 μg/mL, read-out: Average Growth Inhibition (%)
  inhibition at 1.875 µg/mL: 100%
[3]; BAA1427, 3.75 μg/mL, read-out: Average Growth Inhibition (%)
  inhibition at 3.75 µg/mL: 100%
[3]; BAA1427, 7.5 μg/mL, read-out: Average Growth Inhibition (%)
  inhibition at 7.5 µg/mL: 100%
[3]; BAA1427, 15 μg/mL, read-out: Average Growth Inhibition (%)
  inhibition at 15 µg/mL: 99%
[3]; BAA1427, 30 μg/mL, read-out: Average Growth Inhibition (%)
  inhibition at 30 µg/mL: 97%
[3]; BAA1427, 60 μg/mL, read-out: Average Growth Inhibition (%)
  inhibition at 60 µg/mL: 91%
[3]; BAA1427, read-out: MIC (inhibited greater than 90% growth)
  MIC: 1.88 µg/mL
[4]; [19]
  MIC: 0.938 µg/mL
[4]; read-out: MIC of OCT Alone
  MIC: 1.88 µg/mL
[5]; [19]
  MIC: 0.234 µg/mL
[5]; read-out: MIC of OCT Alone
  MIC: 0.938 µg/mL
[6]; [19]
  MIC: 0.029 µg/mL
[6]; read-out: MIC of OCT Alone
  MIC: 1.88 µg/mL
[7]; 0.46875 μg/mL
  CFU/mL: Lawn (‘Lawn’indicates too many colonies to accurately count (e.g., greater than 250 colonies on an agar plate))
  Number of Colonies: Lawn (‘Lawn’indicates too many colonies to accurately count (e.g., greater than 250 colonies on an agar plate))
[7]; 0.9375 μg/mL
  CFU/mL: Lawn (‘Lawn’indicates too many colonies to accurately count (e.g., greater than 250 colonies on an agar plate))
  Number of Colonies: Lawn (‘Lawn’indicates too many colonies to accurately count (e.g., greater than 250 colonies on an agar plate))
[7]; 1.875 μg/mL
  CFU/mL: 966.67 CFU/mL
  Number of Colonies: 9.667
[7]; 3.75 μg/mL
  CFU/mL: 0 CFU/mL
  Number of Colonies: 0
[7]; 7.5 μg/mL
  CFU/mL: 0 CFU/mL
  Number of Colonies: 0
[7]; 15 μg/mL
  CFU/mL: 0 CFU/mL
  Number of Colonies: 0
[7]; 30 μg/mL
  CFU/mL: 0 CFU/mL
  Number of Colonies: 0
[7]; 60 μg/mL
  CFU/mL: 0 CFU/mL
  Number of Colonies: 0
[7]; Pseudomonas aeruginosa, ATCC15442, read-out: MBC (concentration having less than 500 CFU/mL)
  MBC: 3.75 µg/mL
[8]; 0.46875 μg/mL
  CFU/mL: Lawn (‘Lawn’indicates too many colonies to accurately count (e.g., greater than 250 colonies on an agar plate))
  Number of Colonies: Lawn (‘Lawn’indicates too many colonies to accurately count (e.g., greater than 250 colonies on an agar plate))
[8]; 0.9375 μg/mL
  CFU/mL: 0 CFU/mL
  Number of Colonies: 0
[8]; 1.875 μg/mL
  CFU/mL: 0 CFU/mL
  Number of Colonies: 0
[8]; 3.75 μg/mL
  CFU/mL: 566.67 CFU/mL
  Number of Colonies: 5.6667
[8]; 7.5 μg/mL
  CFU/mL: 0 CFU/mL
  Number of Colonies: 0
[8]; 15 μg/mL
  CFU/mL: 0 CFU/mL
  Number of Colonies: 0
[8]; 30 μg/mL
  CFU/mL: 0 CFU/mL
  Number of Colonies: 0
[8]; 60 μg/mL
  CFU/mL: 0 CFU/mL
  Number of Colonies: 0
[8]; Staphylococcus aureus, ATCC6538, read-out: MBC (concentration having less than 500 CFU/mL)
  MBC: 0.938 µg/mL
[9]; 0.46875 μg/mL
  CFU/mL: Lawn (‘Lawn’indicates too many colonies to accurately count (e.g., greater than 250 colonies on an agar plate))
  Number of Colonies: Lawn (‘Lawn’indicates too many colonies to accurately count (e.g., greater than 250 colonies on an agar plate))
[9]; 0.9375 μg/mL
  CFU/mL: Lawn (‘Lawn’indicates too many colonies to accurately count (e.g., greater than 250 colonies on an agar plate))
  Number of Colonies: Lawn (‘Lawn’indicates too many colonies to accurately count (e.g., greater than 250 colonies on an agar plate))
[9]; 1.875 μg/mL
  CFU/mL: 0 CFU/mL
  Number of Colonies: 0
[9]; 3.75 μg/mL
  CFU/mL: 0 CFU/mL
  Number of Colonies: 0
[9]; 7.5 μg/mL
  CFU/mL: 0 CFU/mL
  Number of Colonies: 0
[9]; 15 μg/mL
  CFU/mL: 0 CFU/mL
  Number of Colonies: 0
[9]; 30 μg/mL
  CFU/mL: 0 CFU/mL
  Number of Colonies: 0
[9]; 60 μg/mL
  CFU/mL: 0 CFU/mL
  Number of Colonies: 0
[9]; Escherichia coli, BAA1427, read-out: MBC (concentration having less than 500 CFU/mL)
  MBC: 1.88 µg/mL
